How the values were obtained:
Or10a = molecular target: T1, Or10a (Drosophila melanogaster, UniProt Q9VYZ1); experiment: GFET sensor, Or10a liposomes; assay type: biochemical; conditions: Table 4, GFET
T1 construct: his-tag; made in house; host or cells: baculovirus-infected Sf9 cells
T1 sequence (Q9VYZ1 1-406): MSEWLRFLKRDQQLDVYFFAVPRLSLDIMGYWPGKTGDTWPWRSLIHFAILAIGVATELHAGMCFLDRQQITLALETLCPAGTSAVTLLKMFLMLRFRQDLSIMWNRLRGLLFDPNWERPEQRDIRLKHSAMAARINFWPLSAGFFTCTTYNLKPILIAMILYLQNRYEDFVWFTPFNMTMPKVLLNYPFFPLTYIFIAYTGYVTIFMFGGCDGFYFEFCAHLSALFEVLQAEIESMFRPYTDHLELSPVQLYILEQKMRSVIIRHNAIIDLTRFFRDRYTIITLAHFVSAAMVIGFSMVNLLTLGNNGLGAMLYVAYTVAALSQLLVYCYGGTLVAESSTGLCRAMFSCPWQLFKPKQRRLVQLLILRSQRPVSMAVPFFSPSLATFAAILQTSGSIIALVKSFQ
Source text: (§1) The GFETs used in this study were fabricated from a predeposited graphene film on 300 nm SiO2 coated Si substrate from ACS Suppliers, USA. The FETs consist of a channel with dimensions of 100 μm width and […]. The key steps involved in fabricating the GFET on a Si/SiO2 substrate is schematically illustrated in FIG. 12. The source and drain electrodes were defined by photolithography and formed by successive deposition of Cr and Au. Both the drain and source electrodes were then encapsulated using AZ1518 photoresist and a channel with dimensions of 100 μm width and 10 μm length was left open to the environment for gating and functionalisation.
(§2) The OR liposomes were functionalised onto the graphene surface via a non-covalent route using PBASE as the molecular linker as shown in FIG. 13. The OR liposomes were diluted at 1:10 ratio with 1×PBS (pH7.4). The cleaned GFETs were immersed in 1 mM PBASE solution in methanol for 1 hour. […]
(§3) Electrical sensor measurements of OR liposome functionalised GFETs were carried out using top liquid gate morphology as shown in the schematic in FIG. 15 (a). […] The transfer characteristics of the different graphene FETs (FIG. 15 (b) to (g)) were measured at Vds=1 mV while the liquid gate voltage Vlg was swept from −0.5 V to 1 V with an interval of 20 mV. […]

Or22a = molecular target: T2, Or22a (Drosophila melanogaster, UniProt P81909); experiment: GFET sensor, Or22a liposomes; assay type: biochemical; conditions: Table 4, GFET
T2 construct: his-tag; made in house; host or cells: baculovirus-infected Sf9 cells
T2 sequence (P81909 1-397): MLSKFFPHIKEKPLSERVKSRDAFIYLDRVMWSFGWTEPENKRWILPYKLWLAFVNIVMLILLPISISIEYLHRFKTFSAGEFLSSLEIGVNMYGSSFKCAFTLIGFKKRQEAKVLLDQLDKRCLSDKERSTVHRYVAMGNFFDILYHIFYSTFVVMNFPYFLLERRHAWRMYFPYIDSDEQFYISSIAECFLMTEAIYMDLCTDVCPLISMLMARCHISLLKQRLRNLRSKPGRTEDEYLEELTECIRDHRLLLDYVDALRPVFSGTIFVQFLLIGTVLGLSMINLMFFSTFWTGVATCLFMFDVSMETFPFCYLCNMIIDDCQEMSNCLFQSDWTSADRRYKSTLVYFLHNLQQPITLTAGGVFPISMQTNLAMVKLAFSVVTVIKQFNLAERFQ
Source text: as §1, §2, §3

Row | SMILES | Detection Range (Or10a) | EC50 (Or10a) | Detection Range (Or22a) | EC50 (Or22a)
1 | COC(=O)c1ccccc1O [methyl salicylate] | 10^−12 to 10^−8 M | 15.6 pM |  | 
2 | CCCCCC(=O)OC [methyl hexanoate] |  |  | 10^−12 to 10^−8 M | 12.1 pM

Source: patent US20210255184A1, “Biosensor Device and Methods” (The New Zealand Institute for Plant and Food Research …, priority 2018, published 2021)
